The target of assay [1] is S. aureus Alpha hemolysin (Staphylococcus aureus, UniProt P09616). The assay can be described thus: cell-based. Particulars: A549-LDH Assay activity.
The target in assay [2] is hemolysin alpha from Staphylococcus aureus (Staphylococcus aureus, UniProt P09616). The assay is described as follows: cell-based.

From patent publication US20240376084A1, “INHIBITORS OF ALPHA-HEMOLYSIN OF STAPHYLOCOCCUS AUREUS” (Helmholtz-Zentrum Fur Infektionsforschung GmbH, priority 2021, published 2024) come the findings set out here.

Sequence of hemolysin alpha from Staphylococcus aureus (P09616 27-319 limits assumed): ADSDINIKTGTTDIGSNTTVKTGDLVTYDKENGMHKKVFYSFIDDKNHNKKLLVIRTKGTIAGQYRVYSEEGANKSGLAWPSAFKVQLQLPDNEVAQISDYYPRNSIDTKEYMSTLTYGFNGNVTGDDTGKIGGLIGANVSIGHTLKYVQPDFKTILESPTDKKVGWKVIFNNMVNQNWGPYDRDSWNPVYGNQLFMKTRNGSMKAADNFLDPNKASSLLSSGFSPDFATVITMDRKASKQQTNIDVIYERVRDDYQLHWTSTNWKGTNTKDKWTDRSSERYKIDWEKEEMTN
Sequence of S. aureus Alpha hemolysin (P09616 27-319 limits assumed): as above

The EC50 is the midpoint of the concentration-response curve. Broadly, the IC50 is the point on the concentration scale where inhibition reaches its midpoint. As to `O=c1[nH]c2cc(Cl)c(S(=O)(=O)Nc3ccc(-c4ccoc4)c(Cl)c3)cc2[nH]c1=O` [Compound 44, 7-chloro-N-(3-chloro-4-(furan-3-yl)phenyl)-2,3-dioxo-1,2,3,4-tetrahydroquinoxaline-6-sulfonamide], in assay [1], the EC50 is 100 to 1000 nM. The molecule further came in with an IC50 in assay [2] of 30 to 100 nM.

In assay [1], `CCc1ccc(NS(=O)(=O)c2cc3[nH]c(=O)c(=O)[nH]c3cc2C)cc1` [Compound 92, N-(4-ethylphenyl)-7-methyl-2,3-dioxo-1,2,3,4-tetrahydroquinoxaline-6-sulfonamide] yielded an EC50 of less than 30 nM. The same molecule registered an IC50 in assay [2] of less than 30 nM.

Consider `O=c1[nH]c2cc(F)c(S(=O)(=O)Nc3ccc(-c4cccc(Cl)c4)c(Cl)c3)cc2[nH]c1=O` [Compound 65, N-(2,3′-dichloro-[1,1′-biphenyl]-4-yl)-7-fluoro-2,3-dioxo-1,2,3,4-tetrahydroquinoxaline-6-sulfonamide], for which the EC50 in assay [1] lay within 1000 to 6000 nM. In addition, the IC50 in assay [2] was 30 to 100 nM.

Molecule `Cc1cc2[nH]c(=O)c(=O)[nH]c2cc1S(=O)(=O)Nc1ccc(-c2ccccc2CO)c(Cl)c1` [Compound 78, N-(2-chloro-2′-(hydroxymethyl)-[1,1′-biphenyl]-4-yl)-7-methyl-2,3-dioxo-1,2,3,4-tetrahydroquinoxaline-6-sulfonamide] showed an EC50 in assay [1] of 100 to 1000 nM. In assay [2], this molecule gave an IC50 of 100 to 1000 nM.

Molecule `CC(C)c1cc2[nH]c(=O)c(=O)[nH]c2cc1S(=O)(=O)Nc1ccc(C(F)(F)F)cc1` [Compound 152, 7-isopropyl-2,3-dioxo-N-(4-(trifluoromethyl)phenyl)-1,2,3,4-tetrahydroquinoxaline-6-sulfonamide] showed an EC50 in assay [1] of 30 to 100 nM. Moreover, the IC50 in assay [2] was in the range of 100 to 1000 nM.

With `Cc1cc2[nH]c(=O)c(=O)[nH]c2cc1S(=O)(=O)Nc1ccc(-c2cccs2)c(Cl)c1` [Compound 24, N-(3-chloro-4-(thiophen-2-yl)phenyl)-7-methyl-2,3-dioxo-1,2,3,4-tetrahydroquinoxaline-6-sulfonamide], the EC50 in assay [1] fell in the range of 30 to 100 nM. In assay [2], this molecule displayed an IC50 of less than 30 nM.

In assay [1], `CC(C)c1ccc(NS(=O)(=O)c2cc3[nH]c(=O)c(=O)[nH]c3cc2F)cc1` [Compound 101, 7-fluoro-N-(4-isopropylphenyl)-2,3-dioxo-1,2,3,4-tetrahydroquinoxaline-6-sulfonamide] returned an EC50 of 100 to 1000 nM. Moreover, the IC50 in assay [2] was 100 to 1000 nM.

For the molecule `CCOc1cc2[nH]c(=O)c(=O)[nH]c2cc1S(=O)(=O)Nc1ccc(OC(F)(F)F)cc1` [Compound 278, 7-ethoxy-2,3-dioxo-N-[4-(trifluoromethoxy)phenyl]-1,4-dihydroquinoxaline-6-sulfonamide], the values for the EC50 in assay [1] and in assay [2] were less than 30 nM and 100 to 1000 nM, respectively.

`Cc1cc2[nH]c(=O)c(=O)[nH]c2cc1S(=O)(=O)Nc1ccc(-c2ccccc2Cl)cc1` [Compound 108, N-(2′-chloro-[1,1′-biphenyl]-4-yl)-7-methyl-2,3-dioxo-1,2,3,4-tetrahydroquinoxaline-6-sulfonamide]: the EC50 in assay [1] lay within 100 to 1000 nM. The same molecule displayed an IC50 in assay [2] of 100 to 1000 nM.

`[2H]C([2H])([2H])c1cc2[nH]c(=O)c(=O)[nH]c2cc1S(=O)(=O)Nc1ccc(-c2ccc(F)cc2)c(Cl)c1` [Compound 387, N-[3-chloro-4-(4-fluorophenyl)phenyl]-2,3-dioxo-7-(trideuteriomethyl)-1,4-dihydroquinoxaline-6-sulfonamide]: the EC50 is 30 to 100 nM in assay [1] and less than 30 nM in assay [2].

On to `Cc1cc2[nH]c(=O)c(=O)[nH]c2cc1S(=O)(=O)Nc1ccc(-c2ccccc2C(=O)O)cc1` [Compound 182, 4′-((7-methyl-2,3-dioxo-1,2,3,4-tetrahydroquinoxaline)-6-sulfonamido)-[1,1′-biphenyl]-2-carboxylic acid], for which, in assay [1], the EC50 was in the range of 1000 to 6000 nM. Further, the IC50 in assay [2] lay within 1000 to 3500 nM.

`COc1ccc(-c2ccc(NS(=O)(=O)c3cc4[nH]c(=O)c(=O)[nH]c4cc3C)cc2C(F)(F)F)cc1F` [Compound 345, N-[4-(3-fluoro-4-methoxy-phenyl)-3-(trifluoromethyl)phenyl]-7-methyl-2,3-dioxo-1,4-dihydroquinoxaline-6-sulfonamide]: the EC50 in assay [1] and in assay [2] was less than 30 nM in each case.

As to `Cc1cc2[nH]c(=O)c(=O)[nH]c2cc1S(=O)(=O)Nc1ccc(-c2ccsc2)c(Cl)c1` [Compound 7, N-(3-chloro-4-(thiophen-3-yl)phenyl)-7-methyl-2,3-dioxo-1,2,3,4-tetrahydroquinoxaline-6-sulfonamide], in assay [1], the EC50 fell in the range of 100 to 1000 nM. In addition, the half-inhibitory concentration (IC50) in assay [2] was less than 30 nM.

Take `Cc1nc2cc(-c3ccc(NS(=O)(=O)c4cc5[nH]c(=O)c(=O)[nH]c5cc4C)cc3Cl)ccc2o1` [Compound 272, N-[3-chloro-4-(2-methyl-1,3-benzoxazol-5-yl)phenyl]-7-methyl-2,3-dioxo-1,4-dihydroquinoxaline-6-sulfonamide]: the EC50 in assay [1] and in assay [2] was less than 30 nM each time.

Molecule `Cc1cc2[nH]c(=O)c(=O)[nH]c2cc1S(=O)(=O)Nc1ccc(-c2cccc(C(C)C)c2)c(Cl)c1` [Compound 39, N-(2-chloro-3′-isopropyl-[1,1′-biphenyl]-4-yl)-7-methyl-2,3-dioxo-1,2,3,4-tetrahydroquinoxaline-6-sulfonamide] showed an EC50 in assay [1] of 1000 to 6000 nM. This molecule also yielded an IC50 in assay [2] of 30 to 100 nM.

In assay [1], `Cc1cc2[nH]c(=O)c(=O)[nH]c2cc1S(=O)(=O)Nc1ccc(-c2ccc3c(c2)NCC3)c(Cl)c1` [Compound 13, N-(3-chloro-4-(indolin-6-yl)phenyl)-7-methyl-2,3-dioxo-1,2,3,4-tetrahydroquinoxaline-6-sulfonamide] showed an EC50 of 100 to 1000 nM. This molecule also came in with an IC50 in assay [2] of less than 30 nM.

Take `CC(C)=Cc1ccc(NS(=O)(=O)c2cc3[nH]c(=O)c(=O)[nH]c3cc2C)cc1Cl` [Compound 296, N-[3-chloro-4-(2-methylprop-1-enyl)phenyl]-7-methyl-2,3-dioxo-1,4-dihydroquinoxaline-6-sulfonamide]: the EC50 in assay [1] and in assay [2] was 30 to 100 nM in each case.

In the case of `Cc1cc2[nH]c(=O)c(=O)[nH]c2cc1S(=O)(=O)Nc1ccc(-c2ccc(C#N)cc2)c(Cl)c1` [Compound 376, N-[3-chloro-4-(4-cyanophenyl)phenyl]-7-methyl-2,3-dioxo-1,4-dihydroquinoxaline-6-sulfonamide], the EC50 is 30 to 100 nM in assay [1] and less than 30 nM in assay [2].

For the molecule `C#Cc1cc(NS(=O)(=O)c2cc3[nH]c(=O)c(=O)[nH]c3cc2C)ccc1-c1ccc(C#N)cc1` [Compound 253, N-[4-(4-cyanophenyl)-3-ethynyl-phenyl]-7-methyl-2,3-dioxo-1,4-dihydroquinoxaline-6-sulfonamide], the EC50 in assay [1] was 30 to 100 nM; in assay [2] it was less than 30 nM.

As for `Cc1cc2[nH]c(=O)c(=O)[nH]c2cc1S(=O)(=O)Nc1ccc(-c2ccc3c(c2)N(C)C(=O)CO3)c(Cl)c1` [Compound 356, N-[3-chloro-4-(4-methyl-3-oxo-1,4-benzoxazin-6-yl)phenyl]-7-methyl-2,3-dioxo-1,4-dihydroquinoxaline-6-sulfonamide], the EC50 in assay [1] was 30 to 100 nM; in assay [2] it was less than 30 nM.

`CCCc1ccc(NS(=O)(=O)c2cc3[nH]c(=O)c(=O)[nH]c3cc2Br)cc1` [Compound 41, 7-bromo-2,3-dioxo-N-(4-propylphenyl)-1,2,3,4-tetrahydroquinoxaline-6-sulfonamide] had an EC50 in assay [1] of 30 to 100 nM. In assay [2], the IC50 lay in the range of 30 to 100 nM.

Regarding `COc1ccccc1-c1c(C)cc(NS(=O)(=O)c2cc3[nH]c(=O)c(=O)[nH]c3cc2C)cc1C` [Compound 102, N-(2′-methoxy-2,6-dimethyl-[1,1′-biphenyl]-4-yl)-7-methyl-2,3-dioxo-1,2,3,4-tetrahydroquinoxaline-6-sulfonamide], the EC50 in assay [1] is 30 to 100 nM. Further, in assay [2], the IC50 was in the range of 100 to 1000 nM.

For the molecule `Cc1cc2[nH]c(=O)c(=O)[nH]c2cc1S(=O)(=O)Nc1ccc(Cc2ccccc2)c(Cl)c1` [Compound 321, N-(4-benzyl-3-chloro-phenyl)-7-methyl-2,3-dioxo-1,4-dihydroquinoxaline-6-sulfonamide], the EC50 in assay [1] and in assay [2] was 100 to 1000 nM throughout.

As to `Cc1cc2[nH]c(=O)c(=O)[nH]c2cc1S(=O)(=O)Nc1ccc(-c2ccc3cn[nH]c3c2)c(Cl)c1` [Compound 370, N-[3-chloro-4-(1H-indazol-6-yl)phenyl]-7-methyl-2,3-dioxo-1,4-dihydroquinoxaline-6-sulfonamide], the EC50 in assay [1] and in assay [2] was less than 30 nM in each case.

`CC(C)c1ccc(NS(=O)(=O)c2cc3[nH]c(=O)c(=O)[nH]c3cc2Cl)cc1` [Compound 142, 7-chloro-N-(4-isopropylphenyl)-2,3-dioxo-1,2,3,4-tetrahydroquinoxaline-6-sulfonamide] registered an EC50 in assay [1] of 100 to 1000 nM. This molecule gave an IC50 in assay [2] of 100 to 1000 nM.

For the molecule `Cc1cc2[nH]c(=O)c(=O)[nH]c2cc1S(=O)(=O)Nc1ccc(-c2cccc(O)c2)c(Cl)c1` [Compound 386, N-[3-chloro-4-(3-hydroxyphenyl)phenyl]-7-methyl-2,3-dioxo-1,4-dihydroquinoxaline-6-sulfonamide], the EC50 in assay [1] and in assay [2] was less than 30 nM each time.

In assay [1], `COc1cc(NS(=O)(=O)c2cc3[nH]c(=O)c(=O)[nH]c3cc2C)ccc1-c1ccccc1C` [Compound 124, N-(2-methoxy-2′-methyl-[1,1′-biphenyl]-4-yl)-7-methyl-2,3-dioxo-1,2,3,4-tetrahydroquinoxaline-6-sulfonamide] had an EC50 of 100 to 1000 nM. In addition, the IC50 in assay [2] is 100 to 1000 nM.

For `Cc1cc(NS(=O)(=O)c2cc3[nH]c(=O)c(=O)[nH]c3cc2Cl)ccc1-c1ccccc1` [Compound 45, 7-chloro-N-(2-methyl-[1,1′-biphenyl]-4-yl)-2,3-dioxo-1,2,3,4-tetrahydroquinoxaline-6-sulfonamide], the EC50 in assay [1] lay in the range of 30 to 100 nM. In assay [2], this molecule came in with an IC50 of 30 to 100 nM.

`Cc1cc2[nH]c(=O)c(=O)[nH]c2cc1S(=O)(=O)Nc1ccc(Br)c(Cl)c1` [Compound 75, N-(4-bromo-3-chlorophenyl)-7-methyl-2,3-dioxo-1,2,3,4-tetrahydroquinoxaline-6-sulfonamide] came in with an EC50 in assay [1] of 100 to 1000 nM. The same molecule displayed an IC50 in assay [2] of 100 to 1000 nM.
